Source: the NIST ThermoML archive (doi:10.1021/je100381g)
Numbers after ± are expanded uncertainties.

Conditions: Fluid (supercritical or subcritical phases)

N#N [nitrogen]
Conditions	mass density [kg/m3]
265 K, 967 kPa	12.355 ± 0.001
265 K, 1937 kPa	24.865 ± 0.002
265 K, 3929 kPa	50.84 ± 0.002
265 K, 5996 kPa	77.972 ± 0.003
265 K, 7985 kPa	104.063 ± 0.004
265 K, 9835 kPa	128.039 ± 0.004
265 K, 15014 kPa	192.346 ± 0.006
265 K, 20022 kPa	248.359 ± 0.008
265 K, 25019 kPa	297.183 ± 0.009
265 K, 30006 kPa	339.165 ± 0.011
265 K, 35119 kPa	376.198 ± 0.012
265 K, 50041 kPa	459.104 ± 0.014
265 K, 74887 kPa	549.76 ± 0.017
265 K, 100559 kPa	613.291 ± 0.019
293 K, 965 kPa	11.119 ± 0.001
293 K, 1933 kPa	22.306 ± 0.002
293 K, 3923 kPa	45.361 ± 0.002
293 K, 5988 kPa	69.244 ± 0.003
293 K, 7971 kPa	91.982 ± 0.003
293 K, 9822 kPa	112.91 ± 0.004
293 K, 14872 kPa	167.663 ± 0.006
293 K, 19976 kPa	218.428 ± 0.007
293 K, 24948 kPa	262.722 ± 0.008
293 K, 29965 kPa	302.337 ± 0.01
293 K, 34993 kPa	337.389 ± 0.011
293 K, 39916 kPa	367.801 ± 0.011
293 K, 50130 kPa	421 ± 0.013
293 K, 74957 kPa	513.932 ± 0.016
293 K, 99903 kPa	578.472 ± 0.018
293 K, 125585 kPa	628.863 ± 0.019
293 K, 150976 kPa	668.88 ± 0.02
298.15 K, 10005 kPa	112.564 ± 0.004
298.15 K, 30026 kPa	296.94 ± 0.009
298.15 K, 49844 kPa	413.221 ± 0.013
298.15 K, 74988 kPa	507.852 ± 0.016
298.15 K, 100175 kPa	573.318 ± 0.018
298.15 K, 124825 kPa	622.069 ± 0.019
298.15 K, 151239 kPa	664.101 ± 0.02
350 K, 2974 kPa	28.486 ± 0.002
350 K, 4917 kPa	46.878 ± 0.002
350 K, 5971 kPa	56.772 ± 0.002
350 K, 7481 kPa	70.762 ± 0.003
350 K, 9976 kPa	93.531 ± 0.003
350 K, 13786 kPa	127.029 ± 0.004
350 K, 17230 kPa	155.891 ± 0.005
350 K, 20677 kPa	183.287 ± 0.006
350 K, 24132 kPa	209.197 ± 0.007
350 K, 27582 kPa	233.51 ± 0.008
350 K, 29848 kPa	248.687 ± 0.008
350 K, 34691 kPa	279.018 ± 0.009
350 K, 49978 kPa	358.872 ± 0.011
350 K, 74999 kPa	452.98 ± 0.014
350 K, 99994 kPa	520.331 ± 0.016
350 K, 124395 kPa	571.157 ± 0.018
350 K, 150364 kPa	614.997 ± 0.019
400 K, 1004 kPa	8.432 ± 0.001
400 K, 1999 kPa	16.747 ± 0.002
400 K, 2999 kPa	25.04 ± 0.002
400 K, 4000 kPa	33.281 ± 0.002
400 K, 5001 kPa	41.463 ± 0.002
400 K, 7000 kPa	57.573 ± 0.002
400 K, 8004 kPa	65.564 ± 0.003
400 K, 10000 kPa	81.202 ± 0.003
400 K, 14997 kPa	118.841 ± 0.004
400 K, 19991 kPa	154.143 ± 0.005
400 K, 24998 kPa	187.116 ± 0.006
400 K, 29991 kPa	217.621 ± 0.007
400 K, 35015 kPa	246.029 ± 0.008
400 K, 40004 kPa	272.126 ± 0.009
400 K, 49964 kPa	318.659 ± 0.01
400 K, 59948 kPa	358.969 ± 0.011
400 K, 69931 kPa	394.143 ± 0.012
400 K, 79958 kPa	425.322 ± 0.013
400 K, 89963 kPa	453.061 ± 0.014
400 K, 99951 kPa	477.982 ± 0.015
400 K, 110031 kPa	500.804 ± 0.015
400 K, 120573 kPa	522.585 ± 0.016
